Reference: the supplement of paper PMC10307832

What was measured:
Assay in all cases: relative viability (nuclei count vs DMSO), 5 days (fraction); higher = more cells survive
[1] = compound: O=C(C[C@H]1NCCC[C@@H]1O)Cn1cnc2cc(Br)c(Cl)cc2c1=O (racemic) [Halofuginone] + O=C(CCCCCCC(=O)Nc1ccccc1)NO [Vorinostat] (partner 1 µM)
In short: (§1)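 Relative viability was taken as the ratio of nuclei in treated wells to nuclei in vehicle wells. Lung cancer cell lines in 1536-well plates received compounds by pin tool one day after seeding, either one drug alone or a fixed anchor-drug dose plus five library-drug doses (not always all listed) in √10 steps. Nuclei were counted on 4× images after 5 days of treatment, and values are medians of duplicate plates.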

[2] = compound: Nc1ncn([C@H]2C[C@H](O)[C@@H](CO)O2)c(=O)n1 [Decitabine] + CC(C)C[C@H](NC(=O)[C@H](Cc1ccccc1)NC(=O)c1cnccn1)B(O)O [Bortezomib] (partner 0.002 µM)
In short: as §1

[3] = compound: COc1cc2c(Oc3ccc4[nH]c(C)cc4c3F)ncnc2cc1OCCCN1CCCC1 [Cediranib] + CCNC(=O)c1noc(-c2cc(C(C)C)c(O)cc2O)c1-c1ccc(CN2CCOCC2)cc1 [Luminespib] (partner 0.01 µM)
In short: as §1

[4] = compound: Nc1ncn([C@H]2C[C@H](O)[C@@H](CO)O2)c(=O)n1 [Decitabine] + CCNC(=O)c1noc(-c2cc(C(C)C)c(O)cc2O)c1-c1ccc(CN2CCOCC2)cc1 [Luminespib] (partner 0.01 µM)
In short: as §1

Cell Line | relative viability ([1]; first compound 0.001 µM) | relative viability ([1]; first compound 0.003162 µM) | relative viability ([1]; first compound 0.01 µM) | relative viability ([1]; first compound 0.03162 µM) | relative viability ([1]; first compound 0.1 µM) | relative viability ([2]; first compound 0.04 µM) | relative viability ([2]; first compound 0.1265 µM) | relative viability ([2]; first compound 0.4 µM) | relative viability ([2]; first compound 1.265 µM) | relative viability ([2]; first compound 4 µM) | relative viability ([3]; first compound 0.04 µM) | relative viability ([3]; first compound 0.1265 µM) | relative viability ([3]; first compound 1.265 µM) | relative viability ([3]; first compound 4 µM) | relative viability ([4]; first compound 0.1265 µM) | relative viability ([4]; first compound 0.4 µM) | relative viability ([4]; first compound 1.265 µM) | relative viability ([4]; first compound 4 µM) | relative viability ([3]; first compound 0.4 µM) | relative viability ([4]; first compound 0.04 µM)
ABC-1 | 1.11 | 1.08 | 1.04 | 1.24 | 1.04 | 0.286 | 0.239 | 0.315 | 0.23 | 0.228 | 0.885 | 0.714 | 0.44 | 0.486 | 0.807 | 0.521 | 0.345 | 0.331 | – | –
BEN | 0.55 | 0.541 | 0.55 | 0.587 | 0.572 | 0.779 | 0.779 | 0.539 | 0.427 | 0.481 | 0.379 | – | 0.201 | 0.381 | 0.373 | 0.243 | 0.282 | 0.242 | 0.338 | 0.332
CAL-12T | 0.876 | 0.897 | 0.746 | 0.651 | 0.445 | 0.828 | 1.01 | 0.535 | 0.558 | 0.543 | 0.242 | 0.369 | 0.359 | 0.361 | 0.359 | – | 0.298 | 0.249 | 0.364 | 0.612
COR-L23 | 0.602 | 0.295 | 0.493 | 0.301 | 0.106 | 0.695 | 0.703 | 0.42 | 0.316 | 0.234 | 0.778 | 0.768 | 0.571 | 0.626 | 0.402 | 0.298 | 0.222 | 0.148 | 0.58 | 0.331
COR-L 105 | 1.04 | 0.872 | 0.896 | 0.774 | 0.719 | 0.463 | 0.65 | 0.378 | 0.494 | 0.422 | 0.706 | 0.726 | 0.864 | 0.68 | 0.517 | 0.714 | 0.469 | 0.571 | 0.731 | 0.561
ChaGo-K-1 | 0.725 | 0.766 | 0.755 | 0.726 | 0.746 | 0.768 | 0.756 | 0.579 | 0.585 | 0.566 | 0.588 | 0.621 | 0.638 | 0.738 | 0.487 | 0.33 | 0.277 | 0.39 | 0.525 | 0.584
EKVX | 0.787 | 0.729 | 0.729 | 0.693 | 0.572 | 0.71 | 0.776 | 0.798 | 0.383 | 0.381 | 0.965 | 0.969 | 0.742 | 0.995 | 0.682 | 0.551 | 0.389 | 0.322 | 0.822 | 0.68
EMC-BAC-2 | 0.592 | 0.491 | 0.447 | 0.334 | 0.14 | 1.04 | 1.13 | 0.754 | 0.747 | 0.632 | 1.15 | 1.3 | 1.18 | 1.16 | 0.927 | 0.715 | 0.602 | 0.584 | 1.13 | 1.02
EPLC-272H | 0.479 | 0.401 | 0.304 | 0.411 | 0.382 | 0.884 | 0.57 | – | 0.584 | 0.418 | 0.32 | – | – | 0.228 | 0.561 | 0.249 | 0.227 | 0.321 | 0.243 | –
H3255 | 0.852 | 0.818 | 0.761 | 0.819 | 0.818 | 0.294 | 0.751 | 0.479 | 0.521 | 0.705 | 0.83 | – | 0.709 | 0.992 | 0.765 | 0.64 | 0.657 | 0.601 | 0.879 | –
HARA | 0.587 | 0.675 | 0.512 | 0.697 | 0.51 | 0.819 | 0.7 | 0.511 | 0.431 | 0.308 | 0.822 | – | 0.775 | 1.09 | 0.544 | 0.34 | 0.144 | 0.158 | 0.528 | 0.802
HCC-15 | 0.848 | 0.866 | 0.902 | 0.876 | 0.85 | 0.936 | 0.891 | 0.381 | 0.467 | 0.493 | 0.188 | – | 0.225 | 0.425 | 0.38 | 0.267 | 0.191 | 0.195 | 0.261 | 0.301
HCC-44 | 1.15 | 1.14 | 1.17 | 1.2 | 1.05 | 0.821 | 0.898 | 0.536 | 0.602 | 0.548 | – | – | 1.07 | 0.843 | 0.848 | 0.52 | 0.618 | 0.471 | 0.986 | –
HCC-827 | 0.764 | 0.777 | 0.795 | 0.869 | 0.87 | 0.748 | 0.567 | 0.399 | 0.36 | 0.372 | 0.724 | – | 0.5 | 0.439 | 0.31 | 0.246 | 0.301 | 0.316 | 0.541 | 0.239
HOP-62 | 0.675 | 0.597 | 0.603 | 0.566 | 0.279 | 0.418 | 0.23 | 0.23 | 0.0953 | 0.0952 | 1.01 | – | 0.949 | 0.94 | 0.342 | 0.21 | 0.187 | 0.209 | 0.79 | 0.488
